Reference: ChEMBL document CHEMBL1127385, “Synthesis and diuretic activity of alkyl- and arylguanidine analogs of N,N'-dicyclohexyl-4-morpholinecarboxamidine in rats and dogs” (J Med Chem, 1994)
Values joined by “and” are separate entries in the source; they are usually repeats but may differ in a detail not shown here. Equal values may be shown once.

Columns and labels:
Canis familiaris [1] = experiment: Total electrolytic excretion of chlorine in urine of dogs after intravenous administration of 30.3 uM/Kg of drug; format: ADME, organism-based, Canis lupus familiaris; settings: dog, in vivo
Rattus norvegicus [2] = experiment: Tested for the diuretic activity by measuring the urinary volume after peroral administering 341 uM/Kg of drug in rats; format: ADME, organism-based, Urine; settings: in vivo, po
Rattus norvegicus [3] = experiment: Total electrolytic excretion of sodium in urine of rats after peroral administration of 341 uM/Kg of drug; format: ADME, organism-based; settings: in vivo, po
Canis familiaris [4] = species on record: Canis familiaris; experiment: Tissue vascular resistance of pancreas was measured in Beagle dogs before treatment; format: functional, Canis lupus familiaris
Canis familiaris [5] = species on record: Canis familiaris; experiment: Systemic cardio vascular Hemodynamics of mean arterial pressure was measured in Beagle dogs after giving the dose of MNX; format: functional, Canis lupus familiaris, Heart
Rattus norvegicus [6] = experiment: Ratio of Total electrolytic excretion of sodium and potassium in urine of rats after peroral administration of 68.1 uM/Kg of drug; format: ADME, organism-based; settings: in vivo, po
Canis familiaris [7] = species on record: Canis familiaris; experiment: Tissue vascular resistance of right atrium was measured in Beagle dogs before treatment; format: functional, Canis lupus familiaris, Cardiac atrium
Canis familiaris [8] = experiment: Total electrolytic excretion of chlorine in urine of dogs after peroral administration of 34.1 uM/Kg of drug; format: ADME, organism-based, Canis lupus familiaris; settings: dog, in vivo, po
Canis familiaris [9] = experiment: Total electrolytic excretion of chlorine in urine of dogs after peroral administration of 50.8 uM/Kg of drug; format: ADME, organism-based, Canis lupus familiaris; settings: dog, in vivo, po
Rattus norvegicus [10] = experiment: Total electrolytic excretion of chlorine in urine of rats after peroral administration of 341 uM/Kg of drug; format: ADME, organism-based; settings: in vivo, po
Rattus norvegicus [11] = experiment: Ratio of Total electrolytic excretion of sodium and potassium in urine of rats after peroral administration of 341 uM/Kg of drug; format: ADME, organism-based; settings: in vivo, po
Canis familiaris [12] = species on record: Canis familiaris; experiment: Tissue vascular resistance of right atrium was measured in Beagle dogs after giving the dose of MNX; format: functional, Canis lupus familiaris, Cardiac atrium
Rattus norvegicus [13] = experiment: Ratio of Total electrolytic excretion of sodium and potassium in urine of rats after intravenous administration of 9.09 uM/Kg of drug; format: ADME, organism-based; settings: in vivo
Canis familiaris [14] = species on record: Canis familiaris; experiment: Tissue vascular resistance of left ventricle was measured in Beagle dogs before treatment after giving the dose of MNX plus the drug; format: functional, Canis lupus familiaris, Heart left ventricle
Canis familiaris [15] = experiment: Total electrolytic excretion of sodium in urine of dogs after peroral administration of 102 uM/Kg of drug; format: ADME, organism-based, Canis lupus familiaris; settings: dog, in vivo, po
Canis familiaris [16] = experiment: Tested for the diuretic activity by measuring the urinary volume after peroral administering 34.1 uM/Kg of drug in dogs; settings: dog, in vivo, po
Canis familiaris [17] = experiment: Total electrolytic excretion of sodium in urine of dogs after intravenous administration of 3.03 uM/Kg of drug; format: ADME, organism-based, Canis lupus familiaris; settings: dog, in vivo
Canis familiaris [18] = species on record: Canis familiaris; experiment: Tissue vascular resistance of pancreas was measured in Beagle dogs after giving the dose of MNX; format: functional, Canis lupus familiaris
Canis familiaris [19] = experiment: Tested for the diuretic activity by measuring the urinary volume after peroral administering 102 uM/Kg of drug in dogs; format: ADME, organism-based, Canis lupus familiaris, Urine; settings: dog, in vivo, po
Canis familiaris [20] = species on record: Canis familiaris; experiment: Systemic cardio vascular Hemodynamics of total peripheral resistance was measured in Beagle dogs after giving the dose of MNX plus the drug; format: functional, Canis lupus familiaris, Heart
Rattus norvegicus [21] = experiment: Tested for the diuretic activity by measuring the urinary volume after peroral administering 34.1 uM/Kg of drug in rats; format: ADME, organism-based, Urine; settings: in vivo, po
Canis familiaris [22] = species on record: Canis familiaris; experiment: Tissue vascular resistance of right atrium was measured in Beagle dogs after giving the dose of MNX plus the drug; format: functional, Canis lupus familiaris, Cardiac atrium
Canis familiaris [23] = experiment: Total electrolytic excretion of chlorine in urine of dogs after peroral administration of 68.1 uM/Kg of drug; format: ADME, organism-based, Canis lupus familiaris; settings: dog, in vivo, po
Canis familiaris [24] = experiment: Total electrolytic excretion of chlorine in urine of dogs after intravenous administration of 9.09 uM/Kg of drug; format: ADME, organism-based, Canis lupus familiaris; settings: dog, in vivo
Canis familiaris [25] = experiment: Tested for the diuretic activity by measuring the urinary volume after intravenous administering 9.09 uM/Kg of drug in dogs; format: ADME, organism-based, Canis lupus familiaris, Urine; settings: dog, in vivo
Rattus norvegicus [26] = experiment: Ratio of Total electrolytic excretion of sodium and potassium in urine of rats after peroral administration of 50.8 uM/Kg of drug; format: ADME, organism-based; settings: in vivo, po
Rattus norvegicus [27] = experiment: Total electrolytic excretion of potassium in urine of rats after peroral administration of 50.8 uM/Kg of drug; format: ADME, organism-based; settings: in vivo, po
Canis familiaris [28] = experiment: Total electrolytic excretion of potassium in urine of dogs after intravenous administration of 3.03 uM/Kg of drug; format: ADME, organism-based, Canis lupus familiaris; settings: dog, in vivo
Canis familiaris [29] = experiment: Total electrolytic excretion of sodium in urine of dogs after intravenous administration of 30.3 uM/Kg of drug; format: ADME, organism-based, Canis lupus familiaris; settings: dog, in vivo
Canis familiaris [30] = experiment: Total electrolytic excretion of chlorine in urine of dogs after peroral administration of 102 uM/Kg of drug; format: ADME, organism-based, Canis lupus familiaris; settings: dog, in vivo, po
Canis familiaris [31] = species on record: Canis familiaris; experiment: Systemic cardio vascular Hemodynamics of heart rate was measured in Beagle dogs after giving the dose of MNX plus the drug; format: functional, Canis lupus familiaris
Canis familiaris [32] = experiment: Tested for the diuretic activity by measuring the urinary volume after intravenous administering 34.1 uM/Kg of drug in dogs; format: ADME, organism-based, Canis lupus familiaris, Urine; settings: dog, in vivo
Canis familiaris [33] = experiment: Total electrolytic excretion of chlorine in urine of dogs after intravenous administration of 34.1 uM/Kg of drug; format: ADME, organism-based, Canis lupus familiaris; settings: dog, in vivo
Canis familiaris [34] = species on record: Canis familiaris; experiment: Systemic cardio vascular Hemodynamics of stroke index was measured in Beagle dogs in pretreatment control group; format: functional, Canis lupus familiaris, Heart
Canis familiaris [35] = experiment: Total electrolytic excretion of sodium in urine of dogs after peroral administration of 50.8 uM/Kg of drug; format: ADME, organism-based, Canis lupus familiaris; settings: dog, in vivo, po
Canis familiaris [36] = experiment: Total electrolytic excretion of sodium in urine of dogs after intravenous administration of 9.09 uM/Kg of drug; format: ADME, organism-based, Canis lupus familiaris; settings: dog, in vivo
Canis familiaris [37] = experiment: Tested for the diuretic activity by measuring the urinary volume after peroral administering 50.8 uM/Kg of drug in dogs; format: ADME, organism-based, Canis lupus familiaris, Urine; settings: dog, in vivo, po
Canis familiaris [38] = experiment: Total electrolytic excretion of potassium in urine of dogs after intravenous administration of 34.1 uM/Kg of drug; format: ADME, organism-based, Canis lupus familiaris; settings: dog, in vivo
Canis familiaris [39] = species on record: Canis familiaris; experiment: Systemic cardio vascular Hemodynamics of cardiac index was measured in Beagle dogs after giving the dose of MNX; format: functional, Canis lupus familiaris, Heart
Canis familiaris [40] = experiment: Tested for the diuretic activity by measuring the urinary volume after peroral administering 34.1 uM/Kg of drug in dogs; format: ADME, organism-based, Canis lupus familiaris, Urine; settings: dog, in vivo, po
Rattus norvegicus [41] = experiment: Tested for the diuretic activity by measuring the urinary volume after peroral administering 102 uM/Kg of drug in rats; format: ADME, organism-based, Urine; settings: in vivo, po
Canis familiaris [42] = species on record: Canis familiaris; experiment: Systemic cardio vascular Hemodynamics of mean arterial pressure was measured in Beagle dogs in pretreatment control group; format: functional, Canis lupus familiaris, Heart
Rattus norvegicus [43] = experiment: Ratio of Total electrolytic excretion of sodium and potassium in urine of rats after peroral administration of 34.1 uM/Kg of drug; format: ADME, organism-based; settings: in vivo, po
Canis familiaris [44] = species on record: Canis familiaris; experiment: Systemic cardio vascular Hemodynamics of stroke index was measured in Beagle dogs after giving the dose of MNX; format: functional, Canis lupus familiaris, Heart
Canis familiaris [45] = experiment: Tested for the diuretic activity by measuring the urinary volume after intravenous administering 30.3 uM/Kg of drug in dogs; format: ADME, organism-based, Canis lupus familiaris, Urine; settings: dog, in vivo
Rattus norvegicus [46] = experiment: Total electrolytic excretion of sodium in urine of rats after peroral administration of 102 uM/Kg of drug; format: ADME, organism-based; settings: in vivo, po
Canis familiaris [47] = species on record: Canis familiaris; experiment: Tissue vascular resistance of large intestine was measured in Beagle dogs after giving the dose of MNX plus the drug; format: functional, Canis lupus familiaris
Rattus norvegicus [48] = experiment: Total electrolytic excretion of chlorine in urine of rats after peroral administration of 102 uM/Kg of drug; format: ADME, organism-based; settings: in vivo, po
Canis familiaris [49] = species on record: Canis familiaris; experiment: Systemic cardio vascular Hemodynamics of cardiac index was measured in Beagle dogs in pretreatment control group; format: functional, Canis lupus familiaris, Heart
Canis familiaris [50] = experiment: Total electrolytic excretion of potassium in urine of dogs after intravenous administration of 9.09 uM/Kg of drug; format: ADME, organism-based, Canis lupus familiaris; settings: dog, in vivo
Canis familiaris [51] = species on record: Canis familiaris; experiment: Systemic cardio vascular Hemodynamics of stroke index was measured in Beagle dogs after giving the dose of MNX plus the drug; format: functional, Canis lupus familiaris, Heart
Canis familiaris [52] = species on record: Canis familiaris; experiment: Tissue vascular resistance of large intestine was measured in Beagle dogs after giving the dose of MNX; format: functional, Canis lupus familiaris
Rattus norvegicus [53] = experiment: Ratio of Total electrolytic excretion of sodium and potassium in urine of rats after intravenous administration of 3.03 uM/Kg of drug; format: ADME, organism-based; settings: in vivo

C1CCC(N=C(NC2CCCCC2)N2CCOCC2)CC1 was tested, and the “Excretion Cl-” value (Canis familiaris [1]) was 12.5 m equiv, the V (Rattus norvegicus [2]) was 10.2 mL and the “Excretion Na+” value (Rattus norvegicus [3]) was 1.73 m equiv. It also gave a TVR (Canis familiaris [4]) of 118 mmHg·min·g/mL, an MAP (Canis familiaris [5]) of 75 mmHg and a Ratio (Rattus norvegicus [6]) of 8.6. The TVR (Canis familiaris [7]) was 635 mmHg·min·g/mL, the “Excretion Cl-” value (Canis familiaris [8]) was 9.4 m equiv and the “Excretion Cl-” value (Canis familiaris [9]) was 9.8 m equiv. The “Excretion Cl-” value (Rattus norvegicus [10]) was 1.64 m equiv, the Ratio (Rattus norvegicus [11]) was 5 and the TVR (Canis familiaris [12]) was 37 mmHg·min·g/mL. For the same compound, the Ratio (Rattus norvegicus [13]) was 8.7, the TVR (Canis familiaris [14]) was 100 mmHg·min·g/mL and the “Excretion Na+” value (Canis familiaris [15]) was 22.5 m equiv. For the same compound, the V (Canis familiaris [16]) was 81 mL, the “Excretion Na+” value (Canis familiaris [17]) was 8.1 m equiv and the TVR (Canis familiaris [18]) was 43 mmHg·min·g/mL. For the same compound, the V (Canis familiaris [19]) was 154 mL, the TPR (Canis familiaris [20]) was 0.91 mmHg·min·kg/mL and the V (Rattus norvegicus [21]) was 6.6 mL. For the same compound, the TVR (Canis familiaris [22]) was 573 mmHg·min·g/mL, the “Excretion Cl-” value (Canis familiaris [23]) was 12.3 m equiv and the “Excretion Cl-” value (Canis familiaris [24]) was 9.6 m equiv. For the same compound, the V (Canis familiaris [25]) was 87 mL, the Ratio (Rattus norvegicus [26]) was 6.1 and the “Excretion K+” value (Rattus norvegicus [27]) was 1.9 m equiv. The “Excretion K+” value (Canis familiaris [28]) was 1.2 m equiv, the “Excretion Na+” value (Canis familiaris [29]) was 13.1 m equiv and the “Excretion Cl-” value (Canis familiaris [30]) was 19.6 m equiv. For the same compound, the HR (Canis familiaris [31]) was 132 beats min-1, the V (Canis familiaris [32]) was 132 mL and the “Excretion Cl-” value (Canis familiaris [33]) was 16.4 m equiv. The SI (Canis familiaris [34]) was 2.2 ml beat-1 kg-1, the “Excretion Na+” value (Canis familiaris [35]) was 11.9 m equiv and the “Excretion Na+” value (Canis familiaris [36]) was 11.5 m equiv. The V (Canis familiaris [37]) was 62 mL, the “Excretion K+” value (Canis familiaris [38]) was 1.3 m equiv and the CI (Canis familiaris [39]) was 260 mL/min/kg. It also gave a V (Canis familiaris [40]) of 77 mL, a V (Rattus norvegicus [41]) of 10 mL and an MAP (Canis familiaris [42]) of 101 mmHg. The Ratio (Rattus norvegicus [43]) was 3.6 and 9.6 and 9.1, the SI (Canis familiaris [44]) was 1.9 ml beat-1 kg-1 and the V (Canis familiaris [45]) was 114 mL. The “Excretion Na+” value (Rattus norvegicus [46]) was 1.56 m equiv, the TVR (Canis familiaris [47]) was 340 mmHg·min·g/mL and the “Excretion Cl-” value (Rattus norvegicus [48]) was 1.65 m equiv. The CI (Canis familiaris [49]) was 186 mL/min/kg, the “Excretion K+” value (Canis familiaris [50]) was 1.7 m equiv and the SI (Canis familiaris [51]) was 1.1 ml beat-1 kg-1. It also gave a TVR (Canis familiaris [52]) of 116 mmHg·min·g/mL and a Ratio (Rattus norvegicus [53]) of 8.4.
